# Results reported in patent US8664379B2, “Fused heterocyclic compounds as ion channel modulators” (Gilead Sciences, Inc., priority 2008, dated 2014).
# Key:
# [1] = target: wild-type human cardiac sodium channel, hNav1.5 (late sodium current) (Homo sapiens, UniProt Q14524); assay: Late INa screening assay (PatchXpress whole cell patch clamp); format: cell-based; conditions: HEK293, 10 μM test compound; HEK293 cells expressing hNav1.5; late INa generated with 10 μM Tefluthrin (some experiments 50 nM ATX II); read-out: Late INa % blk (10 μM test cmpd)
# Procedure: The late sodium current (Late INa) and peak sodium current (Peak INa) assays were performed on an automated electrophysiology platform, PatchXpress 7000A (MDS Analytical Technologies, Sunnyvale, Calif.), which uses the whole cell patch clamp technique to measure currents through the cell membrane of up to 16 cells at a time. The assay used an HEK293 (human embryonic kidney) cell line heterologously expressing the wild-type human cardiac sodium channel, hNav1.5, purchased from Millipore (Billerica, Mass.). No beta subunits were coexpressed with the Na channel alpha subunit. Cells were maintained with standard tissue culture procedures and stable channel expression was maintained with 400 μg/ml Geneticin in the culture medium. Cells isolated for use on PatchXpress were incubated for 5 minutes in Versene 1× and then for 2 minutes in 0.0125% Trypsin-EDTA (both at 37° C.) to ensure that 80-90% of the cells are single and not part of a cell cluster. Experiments were carried out at 24-27° C.
# For both the Late INa and Peak INa assays, series resistance compensation was set to 50% and whole-cell compensation was performed automatically. Currents were low-pass filtered at 10 kHz and digitized at 31.25 kHz. Currents through open sodium channels were automatically recorded and stored in the DataXpress2 database (MDS Analytical Technologies, Sunnyvale, Calif.). Analysis was performed using DataXpress2 analysis software and data are compiled in Excel.
# Compound stocks were routinely made in glass vials to 10 mM in dimethyl sulfoxide (DMSO). In some cases, when compounds were not soluble in DMSO, they were made in 100% ethanol. Stocks were sonicated as necessary. The extracellular solution for screening Late INa was composed of: 140 mM NaCl, 4 mM KCl, 1.8 mM CaCl2, 0.75 mM MgCl2, and 5 mM HEPES with pH adjusted to 7.4 using NaOH. The extracellular solution for screening Peak INa was composed of: 20 mM NaCl, 120 mM N-methyl-D glucamine, 4 mM KCl, 1.8 mM CaCl2, 0.75 mM MgCl2, and 5 mM HEPES with pH adjusted to 7.4 using HCl. The intracellular solution used to perfuse the inside of the cells for both the Late INa and Peak INa assays contains: 120 mM CsF, 20 mM CsCl, 5 mM EGTA, 5 mM HEPES and pH adjusted to 7.4 with CsOH. Compounds were diluted in extracellular solution to 10 μM in glass vials and then transferred to glass well plates before robotic addition to the cells. The 0Na extracellular solution used at the end of each experiment for the Late INa and Peak INa assays to measure baseline current contained: 140 mM N-methyl-D-glucamine; 4 mM KCl; 1.8 mM CaCl2; 0.75 mM MgCl2; 5 mM HEPES and pH was adjusted to 7.4 with HCl.
# For the Late INa assay, sodium channels were activated every 10 seconds (0.1 Hz) by depolarizing the cell membrane to −20 mV for 250 milliseconds (ms) from a holding potential of −120 mV. In response to a −20 mV voltage step, typical Nav1.5 sodium currents activated rapidly to a peak negative current and then inactivated nearly completely within 3-4 ms.
# All compounds were tested to determine their activity in blocking the late sodium current. Late INa current is generated by adding 10 μM Tefluthrin (pyrethroid) to the extracellular solution while recording Na currents. For some experiments, 50 nM ATX II (sea anemone toxin), another late INa activator, was used to generate the late component. Both activators generate late components that are large enough that block of the late component by compounds can be measured easily. For the purposes of the screening, late INa is defined as the mean current between 225 ms and 250 ms after stepping to −20 mV to activate Na channels. After establishing the whole cell recording configuration, late INa activators were added to each well 4 times over a 16-17 minute period so that the late component of the Na current reached a stable value. Compounds were then added (typically at 10 μM), in the presence of late INa activator, with 3 additions over the course of 7 or 8 minutes. […]
# hERG potassium channel = target: T1, hERG potassium channel (Homo sapiens, UniProt Q12809); assay: hERG screening assay (PatchXpress patch clamp); format: cell-based; conditions: hERG expressed in CHO cells, peak current at -50 mV; for hERG Patch Clamp hERG % blk 1 μm: 1 μM test compound; for hERG Patch Clamp hERG % blk 10 μm: 10 μM test compound
# T1 construct: expressed in transfected cells
# Procedure: Compounds were screened to test their activity in blocking the hERG potassium channel. The hERG channel was heterologously expressed in a CHO (Chinese Hamster Ovary) cell line. Cells were maintained with standard tissue culture procedures and stable channel expression was maintained with 500 μg/ml G418 in the culture medium. Cells were harvested for testing on the PatchXpress automated patch clamp with Accumax (Innovative Cell Technologies, San Diego, Calif.) to isolate single cells.
# The following solutions were used for electrophysiological recordings. The external solution contained: 2 mM CaCl2; 2 mM MgCl2; 4 mM KCl; 150 mM NaCl; 10 mM Glucose; 10 mM HEPES (pH 7.4 with 1M NaOH, osmolarity). The internal solution contained: 140 mM KCl, 10 mM MgCl2, 6 mM EGTA, 5 mM HEPES, 5 mM ATP (pH adjusted to 7.25 with KOH).
# hERG channels are activated when the voltage is stepped to +20 mV from the −80 mV holding potential. During a 5 second step at +20 mV, the channels activated and then largely inactivated, so the currents were relatively small. Upon returning to −50 mV from +20 mV, hERG currents transiently became much larger as inactivation was rapidly removed and then the channel closed. The first step to −50 mV for 300 ms was used as a baseline for measuring the peak amplitude during the step to −50 mV after channel activation. The peak current at −50 mV was measured both under control conditions and after addition of compound.
# All compounds were prepared as 10 mM DMSO stocks in glass vials. Stock solutions were mixed by vigorous vortexing and sonication for about 2 minutes at room temperature. For testing, compounds were diluted in glass vials using an intermediate dilution step in pure DMSO and then further diluted to working concentrations in external solution. Dilutions were prepared no longer than 20 minutes before use.
# After achieving the whole-cell configuration, cells were monitored for 90 seconds to assess stability and washed with external solution for 66 seconds. The voltage protocol described above was then applied to the cells every 12 seconds and throughout the whole procedure. Only cells with stable recording parameters and meeting specified health criteria were allowed to enter the compound addition procedure.
# External solution containing 0.1% DMSO (vehicle) was applied to the cells first to establish the control peak current amplitude. After allowing the current to stabilize for 3 to 5 minutes, 1 μM and then 10 μM test compounds were applied. Each compound concentration was added 4 times and cells were kept in test solution until the effect of the compound reached steady state or for a maximum of 12 minutes. After addition of test compound, a positive control (1 μM Cisapride) was added—it must block >95% of the current for the experiment to be considered valid. Washout in the external solution compartment was performed until the recovery of the current reached steady state. Data were analyzed using DataXpress, Clampfit (Molecular Devices, Inc., Sunnyvale) and Origin 7 (Originlab Corp.)
# wild-type human cardiac sodium channel, hNav1.5 (late sodium current), sequence (Q14524 whole entry): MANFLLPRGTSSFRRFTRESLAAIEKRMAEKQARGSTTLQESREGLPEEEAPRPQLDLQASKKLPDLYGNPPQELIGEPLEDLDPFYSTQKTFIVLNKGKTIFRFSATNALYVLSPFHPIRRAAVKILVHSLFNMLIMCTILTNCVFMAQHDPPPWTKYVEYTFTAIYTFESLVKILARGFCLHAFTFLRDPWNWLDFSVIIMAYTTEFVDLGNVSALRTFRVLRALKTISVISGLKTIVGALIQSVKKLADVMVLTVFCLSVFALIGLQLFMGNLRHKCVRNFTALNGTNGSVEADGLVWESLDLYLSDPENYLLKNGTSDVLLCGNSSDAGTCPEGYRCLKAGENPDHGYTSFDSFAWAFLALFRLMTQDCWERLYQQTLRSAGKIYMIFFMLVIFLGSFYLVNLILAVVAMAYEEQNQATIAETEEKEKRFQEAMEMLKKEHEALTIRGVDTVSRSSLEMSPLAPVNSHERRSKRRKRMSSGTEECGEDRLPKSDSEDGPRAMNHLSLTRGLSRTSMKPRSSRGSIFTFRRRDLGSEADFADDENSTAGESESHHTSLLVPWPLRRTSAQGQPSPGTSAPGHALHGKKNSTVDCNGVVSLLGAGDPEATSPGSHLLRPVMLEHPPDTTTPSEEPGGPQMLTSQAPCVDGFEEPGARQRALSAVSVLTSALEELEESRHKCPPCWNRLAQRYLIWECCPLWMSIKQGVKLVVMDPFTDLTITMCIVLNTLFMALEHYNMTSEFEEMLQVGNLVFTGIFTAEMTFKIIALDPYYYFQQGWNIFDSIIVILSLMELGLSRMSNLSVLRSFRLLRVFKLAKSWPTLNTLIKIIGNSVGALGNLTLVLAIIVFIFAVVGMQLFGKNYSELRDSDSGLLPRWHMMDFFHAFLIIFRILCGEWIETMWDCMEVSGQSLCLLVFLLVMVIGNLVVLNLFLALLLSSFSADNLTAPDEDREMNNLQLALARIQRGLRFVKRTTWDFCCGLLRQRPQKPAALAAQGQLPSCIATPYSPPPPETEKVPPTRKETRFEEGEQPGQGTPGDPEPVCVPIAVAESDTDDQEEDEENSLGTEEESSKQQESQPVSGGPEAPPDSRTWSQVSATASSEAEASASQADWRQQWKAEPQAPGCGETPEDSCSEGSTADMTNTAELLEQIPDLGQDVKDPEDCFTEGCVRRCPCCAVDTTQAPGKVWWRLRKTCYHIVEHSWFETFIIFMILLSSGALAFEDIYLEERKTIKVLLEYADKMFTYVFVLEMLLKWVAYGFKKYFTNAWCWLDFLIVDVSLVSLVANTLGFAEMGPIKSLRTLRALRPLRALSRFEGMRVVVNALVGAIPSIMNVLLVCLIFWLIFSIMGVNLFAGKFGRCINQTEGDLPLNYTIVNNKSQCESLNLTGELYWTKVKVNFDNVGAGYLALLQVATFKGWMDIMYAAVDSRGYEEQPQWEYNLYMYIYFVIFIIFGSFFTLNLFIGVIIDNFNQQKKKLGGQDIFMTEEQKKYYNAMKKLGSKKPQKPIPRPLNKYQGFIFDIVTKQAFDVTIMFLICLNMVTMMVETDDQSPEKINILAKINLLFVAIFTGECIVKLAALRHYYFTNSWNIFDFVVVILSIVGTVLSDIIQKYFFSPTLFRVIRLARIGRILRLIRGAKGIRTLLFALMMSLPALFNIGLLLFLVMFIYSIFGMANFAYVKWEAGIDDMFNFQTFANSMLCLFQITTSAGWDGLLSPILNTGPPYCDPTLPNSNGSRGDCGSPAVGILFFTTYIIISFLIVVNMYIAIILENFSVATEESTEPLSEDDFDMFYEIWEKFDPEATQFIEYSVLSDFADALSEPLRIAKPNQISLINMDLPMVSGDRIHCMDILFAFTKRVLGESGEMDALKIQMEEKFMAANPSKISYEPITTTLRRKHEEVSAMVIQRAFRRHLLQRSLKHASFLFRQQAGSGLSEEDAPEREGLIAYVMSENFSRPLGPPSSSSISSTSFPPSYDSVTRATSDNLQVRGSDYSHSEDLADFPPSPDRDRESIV
# T1 sequence (Q12809 whole entry): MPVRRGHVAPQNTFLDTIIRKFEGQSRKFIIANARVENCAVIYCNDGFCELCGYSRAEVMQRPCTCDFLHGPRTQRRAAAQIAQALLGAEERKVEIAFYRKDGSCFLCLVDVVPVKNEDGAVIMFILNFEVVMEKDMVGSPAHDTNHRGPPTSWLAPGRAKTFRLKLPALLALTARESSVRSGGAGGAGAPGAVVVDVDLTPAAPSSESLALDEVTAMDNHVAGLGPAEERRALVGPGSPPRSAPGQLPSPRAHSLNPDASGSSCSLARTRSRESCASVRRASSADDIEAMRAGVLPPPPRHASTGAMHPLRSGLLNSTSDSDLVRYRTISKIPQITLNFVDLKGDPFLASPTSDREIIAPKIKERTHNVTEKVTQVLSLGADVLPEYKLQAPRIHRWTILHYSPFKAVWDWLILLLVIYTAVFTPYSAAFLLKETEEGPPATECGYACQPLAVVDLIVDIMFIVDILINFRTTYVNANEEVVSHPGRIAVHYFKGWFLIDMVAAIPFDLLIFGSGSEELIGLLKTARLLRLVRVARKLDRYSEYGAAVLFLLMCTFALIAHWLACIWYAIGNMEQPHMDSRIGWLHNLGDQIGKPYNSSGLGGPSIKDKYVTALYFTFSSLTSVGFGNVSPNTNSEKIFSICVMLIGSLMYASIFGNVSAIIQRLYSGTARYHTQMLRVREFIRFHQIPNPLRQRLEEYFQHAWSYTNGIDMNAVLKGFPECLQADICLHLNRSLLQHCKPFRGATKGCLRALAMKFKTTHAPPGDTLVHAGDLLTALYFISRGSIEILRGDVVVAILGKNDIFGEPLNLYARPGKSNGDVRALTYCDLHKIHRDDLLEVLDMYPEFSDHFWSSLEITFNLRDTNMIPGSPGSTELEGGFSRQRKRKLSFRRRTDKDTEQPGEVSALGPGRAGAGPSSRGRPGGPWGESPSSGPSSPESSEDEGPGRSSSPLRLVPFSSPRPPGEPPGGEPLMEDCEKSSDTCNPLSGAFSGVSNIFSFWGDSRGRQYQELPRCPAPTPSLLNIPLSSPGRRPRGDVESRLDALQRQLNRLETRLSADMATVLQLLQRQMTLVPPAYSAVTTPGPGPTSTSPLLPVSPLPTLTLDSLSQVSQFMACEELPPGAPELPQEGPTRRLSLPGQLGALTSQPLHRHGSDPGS
structure (smiles),measurement,setting,value
"O=C1CCc2cc(-c3cccc(F)c3)ccc2N1 [Compound 1, 6-(3-fluorophenyl)-3,4-dihydroquinolin-2(1H)-one]",inhibition at 10 µM,[1],74%
same,hERG Patch Clamp hERG % blk 1 μm,hERG potassium channel,10%
same,hERG Patch Clamp hERG % blk 10 μm,hERG potassium channel,19%
"O=C1CCc2cc(-c3ccccc3)ccc2N1 [Compound 4, 6-phenyl-3,4-dihydroquinolin-2(1H)-one]",inhibition at 10 µM,[1],48%
same,hERG Patch Clamp hERG % blk 1 μm,hERG potassium channel,10%
same,hERG Patch Clamp hERG % blk 10 μm,hERG potassium channel,16%
"O=C(O)CN1C(=O)CCc2cc(-c3ccc(C(F)(F)F)cc3)ccc21 [Compound 44, {2-oxo-6-[4-(trifluoromethyl)phenyl]-3,4-dihydroquinolin-1(2H)-yl}acetic acid]",hERG Patch Clamp hERG % blk 1 μm,hERG potassium channel,10%
same,hERG Patch Clamp hERG % blk 10 μm,hERG potassium channel,10%
"NC(=O)CN1C(=O)CCc2cc(-c3ccc(F)cc3F)ccc21 [Compound 55, 2-[6-(2,4-difluorophenyl)-2-oxo-3,4-dihydroquinolin-1(2H)-yl]acetamide]",inhibition at 10 µM,[1],14%
"NC(=O)CN1C(=O)CCc2cc(-c3ccc(C(F)(F)F)cc3)ccc21 [Compound 56, 2-{2-oxo-6-[4-(trifluoromethyl)phenyl]-3,4-dihydroquinolin-1(2H)-yl}acetamide]",inhibition at 10 µM,[1],14%
"O=C(O)CN1C(=O)CCc2cc(-c3cccc(F)c3)ccc21 [Compound 59, [6-(3-fluorophenyl)-2-oxo-3,4-dihydroquinolin-1(2H)-yl]acetic acid]",inhibition at 10 µM,[1],10%
"CC(C)(C)OC(=O)CN1C(=O)CCc2cc(-c3ccc(Oc4ccccc4)cc3)ccc21 [Compound 66, tert-butyl [2-oxo-6-(4-phenoxyphenyl)-3,4-dihydroquinolin-1(2H)-yl]acetate]",inhibition at 10 µM,[1],27%
"CC(C)(C)OC(=O)CN1C(=O)CCc2cc(-c3ccc(Cl)c(C(F)(F)F)c3)ccc21 [Compound 67, tert-butyl {6-[4-chloro-3-(trifluoromethyl)phenyl]-2-oxo-3,4-dihydroquinolin-1(2H)-yl}acetate]",inhibition at 10 µM,[1],74%
"O=C(O)CN1C(=O)CCc2cc(-c3ccc(Cl)cc3)ccc21 [Compound 68, [6-(4-chlorophenyl)-2-oxo-3,4-dihydroquinolin-1(2H)-yl]acetic acid]",inhibition at 10 µM,[1],23%
"O=C(O)CN1C(=O)CCc2cc(-c3ccc(C(F)(F)F)c(F)c3)ccc21 [Compound 74, 2-(6-(3-fluoro-4-(trifluoromethyl)phenyl)-2-oxo-3,4-dihydroquinolin-1(2H)-yl)acetic acid]",inhibition at 10 µM,[1],20%
"COc1cc2c(cc1-c1ccc(Cl)cc1)CCC(=O)N2 [Compound 77, 6-(4-chlorophenyl)-7-methoxy-3,4-dihydroquinolin-2(1H)-one]",inhibition at 10 µM,[1],72%
"COc1c(-c2ccc(Cl)cc2)cc2c(c1Br)NC(=O)CC2 [Compound 78, 8-bromo-6-(4-chlorophenyl)-7-methoxy-3,4-dihydroquinolin-2(1H)-one]",inhibition at 10 µM,[1],34%
"COc1cc2c(cc1-c1ccc(C(F)(F)F)cc1)CCC(=O)N2CC(=O)O [Compound 79, 2-(7-methoxy-2-oxo-6-(4-(trifluoromethyl)phenyl)-3,4-dihydroquinolin-1(2H)-yl)acetic acid]",inhibition at 10 µM,[1],12%
"COc1cc2c(cc1-c1ccc(Cl)cc1)CCC(=O)N2CC(=O)O [Compound 80, 2-(6-(4-chlorophenyl)-7-methoxy-2-oxo-3,4-dihydroquinolin-1(2H)-yl)acetic acid]",inhibition at 10 µM,[1],17%
"COc1c(-c2ccc(Cl)cc2)cc2c(c1-c1ccc(Cl)cc1)N(CC(=O)O)C(=O)CC2 [Compound 81, 2-(6,8-bis(4-chlorophenyl)-7-methoxy-2-oxo-3,4-dihydroquinolin-1(2H)-yl)acetic acid]",inhibition at 10 µM,[1],30%
"COc1cc2c(cc1-c1ccc(C(F)(F)F)c(F)c1)CCC(=O)N2 [Compound 82, 6-(3-fluoro-4-(trifluoromethyl)phenyl)-7-methoxy-3,4-dihydroquinolin-2(1H)-one]",inhibition at 10 µM,[1],54%
"O=C(O)c1ccc(CN2C(=O)CCc3cc(-c4ccc(C(F)(F)F)cc4)ccc32)cc1 [Compound 86, 4-((2-oxo-6-(4-(trifluoromethyl)phenyl)-3,4-dihydroquinolin-1(2H)-yl)methyl)benzoic acid]",inhibition at 10 µM,[1],13%
"COC(=O)c1ccc(CN2C(=O)CCc3cc(-c4ccc(C(F)(F)F)cc4)ccc32)cc1 [Compound 87, methyl 4-((2-oxo-6-(4-(trifluoromethyl)phenyl)-3,4-dihydroquinolin-1(2H)-yl)methyl)benzoate]",inhibition at 10 µM,[1],20%
"COc1ccccc1OCC(O)CN1C(=O)CCc2cc(-c3ccc(F)cc3F)ccc21 (centres unmarked) [Compound 88, 6-(2,4-difluorophenyl)-1-(2-hydroxy-3-(2-methoxyphenoxy)propyl)-3,4-dihydroquinolin-2(1H)-one]",inhibition at 10 µM,[1],40%
"N#CCN1C(=O)CCc2cc(-c3ccc(C(F)(F)F)cc3)ccc21 [Compound 90, 2-(2-oxo-6-(4-(trifluoromethyl)phenyl)-3,4-dihydroquinolin-1(2H)-yl)acetonitrile]",inhibition at 10 µM,[1],22%
"CCOC(=O)c1cccc(CN2C(=O)CCc3cc(-c4ccc(C(F)(F)F)cc4)ccc32)c1 [Compound 91, ethyl 3-((2-oxo-6-(4-(trifluoromethyl)phenyl)-3,4-dihydroquinolin-1(2H)-yl)methyl)benzoate]",inhibition at 10 µM,[1],31%
